Source: ChEMBL document CHEMBL1201862, “PubChem BioAssay data set” (2004)
Active and inactive are the calls of the source.

Experiments:
[1] = biological target: T1, Corticotropin-releasing factor receptor 2/Corticotropin-releasing factor-binding protein (Homo sapiens, UniProt P24387+Q13324); test: activators of CRF receptor 2 with binding protein – uHTS hits, confirmation (AID 602473); assay type: functional; settings: read-out: EC50_Mean
T1 sequence (Q13324 whole entry): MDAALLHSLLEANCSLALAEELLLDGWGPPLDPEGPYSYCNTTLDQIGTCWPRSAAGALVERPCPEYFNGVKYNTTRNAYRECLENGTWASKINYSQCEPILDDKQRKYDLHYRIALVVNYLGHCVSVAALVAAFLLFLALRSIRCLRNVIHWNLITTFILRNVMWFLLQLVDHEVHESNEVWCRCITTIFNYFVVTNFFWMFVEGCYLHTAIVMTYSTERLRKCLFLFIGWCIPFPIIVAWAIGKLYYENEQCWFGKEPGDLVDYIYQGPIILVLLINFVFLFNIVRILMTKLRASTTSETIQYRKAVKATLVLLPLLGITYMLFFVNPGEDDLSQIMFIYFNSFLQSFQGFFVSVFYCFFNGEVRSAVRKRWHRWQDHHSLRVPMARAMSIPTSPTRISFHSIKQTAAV
T1 sequence (P24387 whole entry): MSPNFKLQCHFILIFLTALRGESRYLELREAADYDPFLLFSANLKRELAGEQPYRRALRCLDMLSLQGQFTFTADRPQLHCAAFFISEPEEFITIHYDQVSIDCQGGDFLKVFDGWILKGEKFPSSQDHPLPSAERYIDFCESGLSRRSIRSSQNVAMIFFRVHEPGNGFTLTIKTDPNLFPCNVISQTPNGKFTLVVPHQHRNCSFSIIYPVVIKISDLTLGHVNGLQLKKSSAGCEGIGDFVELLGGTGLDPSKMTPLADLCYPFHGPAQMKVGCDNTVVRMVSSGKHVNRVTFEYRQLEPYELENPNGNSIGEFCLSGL

[2] = biological target: T1, Corticotropin-releasing factor receptor 2/Corticotropin-releasing factor-binding protein; test: Dose Response confirmation of uHTS hits for small molecule antagonists of the CRF-binding protein and CRF-R2 receptor complex.; assay type: functional; settings: read-out: IC50_Mean
Cytochrome P450 1A2 = biological target: T2, Cytochrome P450 1A2 (Homo sapiens, UniProt P05177);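 also: PubChem cytochrome P450 panel assay, CYP1A2 panel member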
T2 sequence (P05177 whole entry): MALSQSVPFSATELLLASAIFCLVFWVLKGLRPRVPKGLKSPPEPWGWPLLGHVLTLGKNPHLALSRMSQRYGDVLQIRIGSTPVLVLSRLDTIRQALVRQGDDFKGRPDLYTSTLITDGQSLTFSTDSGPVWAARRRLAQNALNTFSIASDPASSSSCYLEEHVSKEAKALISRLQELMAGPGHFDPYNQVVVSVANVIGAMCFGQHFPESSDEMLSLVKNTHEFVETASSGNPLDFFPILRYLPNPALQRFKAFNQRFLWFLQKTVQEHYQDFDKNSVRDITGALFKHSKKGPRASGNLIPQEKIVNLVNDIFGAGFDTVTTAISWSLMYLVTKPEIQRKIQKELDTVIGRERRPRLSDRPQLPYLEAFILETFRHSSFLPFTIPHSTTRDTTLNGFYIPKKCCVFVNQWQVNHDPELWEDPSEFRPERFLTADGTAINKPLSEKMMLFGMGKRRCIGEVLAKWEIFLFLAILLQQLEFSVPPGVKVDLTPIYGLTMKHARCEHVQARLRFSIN

Cytochrome P450 2C19 = Cytochrome P450 2C19 (Homo sapiens, UniProt P33261); test: Cytochrome panel assay with activity outcomes. Panel member name: p450-cyp2c19 Compounds with AC50 equal or less than 10 uM are considered active; assay type: functional
[3] = Luminescence Cell-Based Dose Retest to Confirm Inhibitors of Cancer Stem Cells. [Related pubchem assays (depositor defined):AID2717, AID2721]; assay type: functional; settings: Homo sapiens
H9c2 = test: cells; assay type: functional, cell-based; settings: Rattus norvegicus, H9c2, Myocardium;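 also: confirmatory concentration-response retest of ultra-high-throughput screening hits for modulation of myocardial damage; cell death induced by hydrogen peroxide oxidative stress; compound pretreatment for 60 min then peroxide exposure for 2 h; potency is for protecting the cells against peroxide damage rather than for killing them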
Cytochrome P450 2D6 = Cytochrome P450 2D6 (Homo sapiens, UniProt P10635);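 also: CYP2D6 member of a cytochrome P450 panel assay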
Streptococcus = test: GAS UMAA2166 growth inhibition – luminescence, BacTiterGlo, counter-screen for streptokinase expression inhibitor project, dose response (AID 1915); assay type: functional, organism-based;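 also: potency for reduction of bacterial viability or growth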
Streptokinase A = biological target: T3, Streptokinase A (Streptococcus pyogenes serotype M1, UniProt P10520); test: viability-normalized secreted streptokinase activity reduction – plasminogen activation absorbance, OD405, dose response (AID 1914); assay type: functional, Streptococcus pyogenes M1 GAS;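 also: secreted streptokinase activity via plasminogen activation per viability signal from cell pellet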
T3 sequence (P10520 whole entry): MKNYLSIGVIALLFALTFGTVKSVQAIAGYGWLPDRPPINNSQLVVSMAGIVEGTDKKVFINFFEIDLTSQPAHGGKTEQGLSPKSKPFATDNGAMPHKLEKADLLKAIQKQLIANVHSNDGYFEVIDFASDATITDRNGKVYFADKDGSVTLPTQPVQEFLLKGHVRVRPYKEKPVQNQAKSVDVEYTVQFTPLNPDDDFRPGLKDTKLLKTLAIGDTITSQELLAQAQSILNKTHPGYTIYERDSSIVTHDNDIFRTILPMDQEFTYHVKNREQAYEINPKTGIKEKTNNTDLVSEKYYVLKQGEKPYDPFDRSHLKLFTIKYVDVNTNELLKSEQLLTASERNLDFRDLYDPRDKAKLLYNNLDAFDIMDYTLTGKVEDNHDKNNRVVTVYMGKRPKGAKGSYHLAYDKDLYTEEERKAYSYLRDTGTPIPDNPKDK

[4] = viability of uninfected HEp-2 cells – cell-based, HTS, cytotoxicity control for RSV inhibitor project, dose response (AID 2410); assay type: functional; settings: human respiratory syncytial virus
[5] = tested on: Streptococcus sp. 'group A'; test: Streptococcus pyogenes SK(-)GAS viability under kanamycin – luminescence, BacTiterGlo, confirmation, counter-screen for streptokinase expression inhibitor project, dose response (AID 1900); assay type: functional, organism-based
[6] = Trypanosoma cruzi growth suppression in host cells – NIH3T3 host cells, beta-gal luminescence, confirmation (AID 2044); assay type: functional, cell-based;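 also: intracellular parasites grown in NIH/3T3 mouse fibroblasts as host cells; luminescent beta-galactosidase reporter signal from transgenic T. cruzi replicating inside host cells; inhibitors lower the luminescence signal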
[7] = NIH3T3 cell viability loss – ATP luminescence, mouse fibroblasts, counter-screen, dose response (AID 2010); assay type: functional, cell-based;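 also: cells exposed to compound for about 90 hours before reading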
H4 = test: Luminescence Cell-Based Dose Response HTS to Identify Activators of 5'UTR Stem-Loop Driven Prion Protein mRNA Translation in H4 Neuroglioblastoma Cells. [Related pubchem assays: 1829 (Project Summary), 1814 (Primary HTS)]; assay type: functional; settings: Homo sapiens
[8] = Luminescence Cell-Based Dose Response HTS to Identify Activators of Luciferase Translation or Activity in H4 […] Cells. [Related pubchem assays: 1829 (Project Summary), 1814 (Primary HTS)]; assay type: functional
Paired box protein Pax-8 = Paired box protein Pax-8 (Homo sapiens, UniProt Q06710); test: PAX8 transcriptional activity inhibition in RMG-I – RMG-I cells, luciferase, cherry-pick, dose response (AID 687027); assay type: functional, cell-based;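 also: luciferase reporter driven by Pax8 target thyroperoxidase promoter measured by SteadyGlo luminescence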
Chain of Paired box protein Pax-8 (Q06710 whole entry): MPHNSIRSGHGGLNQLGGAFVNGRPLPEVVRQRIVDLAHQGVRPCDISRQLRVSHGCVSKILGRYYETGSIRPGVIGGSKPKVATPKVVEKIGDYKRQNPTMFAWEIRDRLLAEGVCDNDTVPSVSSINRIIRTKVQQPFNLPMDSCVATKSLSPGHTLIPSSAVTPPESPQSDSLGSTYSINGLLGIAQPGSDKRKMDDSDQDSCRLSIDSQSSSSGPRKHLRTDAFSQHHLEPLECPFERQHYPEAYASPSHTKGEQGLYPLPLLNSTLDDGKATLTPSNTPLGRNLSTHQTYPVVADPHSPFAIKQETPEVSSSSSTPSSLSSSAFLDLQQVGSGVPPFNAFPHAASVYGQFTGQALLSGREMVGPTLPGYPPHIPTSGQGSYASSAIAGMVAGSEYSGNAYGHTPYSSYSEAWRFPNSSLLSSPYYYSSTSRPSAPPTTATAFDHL

Chain of Cytochrome P450 2C19 (P33261 whole entry): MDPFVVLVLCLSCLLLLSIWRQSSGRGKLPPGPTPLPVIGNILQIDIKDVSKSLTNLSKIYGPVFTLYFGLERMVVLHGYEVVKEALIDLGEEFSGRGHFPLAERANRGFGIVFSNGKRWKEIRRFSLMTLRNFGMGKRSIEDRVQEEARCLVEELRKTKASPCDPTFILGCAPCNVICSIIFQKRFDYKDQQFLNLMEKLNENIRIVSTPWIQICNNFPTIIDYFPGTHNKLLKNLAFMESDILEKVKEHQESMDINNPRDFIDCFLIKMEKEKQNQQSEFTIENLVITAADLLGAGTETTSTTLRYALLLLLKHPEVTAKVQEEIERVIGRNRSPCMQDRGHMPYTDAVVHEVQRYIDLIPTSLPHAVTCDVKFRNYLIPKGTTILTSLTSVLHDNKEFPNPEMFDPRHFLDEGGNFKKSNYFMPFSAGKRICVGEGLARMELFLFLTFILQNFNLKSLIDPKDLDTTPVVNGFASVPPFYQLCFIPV
Chain of Cytochrome P450 2D6 (P10635 whole entry): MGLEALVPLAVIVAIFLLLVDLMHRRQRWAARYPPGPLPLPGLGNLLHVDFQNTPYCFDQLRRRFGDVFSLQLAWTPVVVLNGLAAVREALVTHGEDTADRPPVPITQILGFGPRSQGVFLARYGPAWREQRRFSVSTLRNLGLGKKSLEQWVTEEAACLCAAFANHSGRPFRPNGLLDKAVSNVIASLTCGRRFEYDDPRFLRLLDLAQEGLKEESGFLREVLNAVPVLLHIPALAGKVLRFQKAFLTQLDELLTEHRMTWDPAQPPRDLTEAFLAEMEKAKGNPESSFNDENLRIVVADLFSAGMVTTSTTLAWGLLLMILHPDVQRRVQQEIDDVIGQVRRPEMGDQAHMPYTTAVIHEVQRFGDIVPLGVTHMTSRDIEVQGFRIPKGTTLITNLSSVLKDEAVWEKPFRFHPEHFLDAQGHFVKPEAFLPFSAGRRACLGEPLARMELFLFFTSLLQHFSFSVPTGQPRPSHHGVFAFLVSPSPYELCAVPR

O=C(CSc1nc2ccccc2n1CCc1ccccc1)NC1CCS(=O)(=O)C1 (stereo not drawn)
EC50 [1]: > 53 µM (inactive) | IC50 [2]: > 47.1 µM (inactive)

COc1ccc(C(=O)N2CCC[C@@]3(CCN(Cc4ccccc4)C3)C2)cc1
AC50 (Cytochrome P450 1A2): 12.6 µM (inconclusive)

Cc1cnc(CNc2cc(-c3ccoc3)ncn2)cn1
AC50 (Cytochrome P450 1A2): 25.1 µM (inconclusive)

CCN(CCCNC(=O)C1CCN(S(=O)(=O)CC)CC1)c1cccc(C)c1
AC50 (Cytochrome P450 1A2): 31.6 µM (inconclusive) | AC50 (Cytochrome P450 2C19; read-out: AC50): 39.8 µM (inconclusive)

O=c1c(Cl)c(NCc2ccc(F)cc2)cnn1C12CC3CC(CC(C3)C1)C2
AC50 [3]: 0.913 µM (active)

O=C(c1cc(-c2cccnc2)nc2ccc(Br)cc12)N1CCN(c2ncccn2)CC1
IC50 (H9c2): > 79 µM (inactive)

COCCn1c(=O)c(-c2ccc(Cl)cc2)nc2cnc(N3CCOCC3)nc21
AC50 (Cytochrome P450 1A2): 1 µM (inconclusive)

c1ccc2sc(SCSc3nc4ccccc4s3)nc2c1
AC50 (Cytochrome P450 2D6): 2.51 µM (inconclusive) | EC50 (Streptococcus): > 150 µM (not active) | EC50 (Streptokinase A): > 150 µM (not active) | CC50 [4]: 29.5 µM (active) | EC50 [5]: > 150 µM (not active)

Brc1ccc(-c2noc(CCc3ccccc3)n2)cc1
CC50 [4]: 47.7 µM (active)

COc1ccc(CNC(=O)c2sc(=S)n(-c3ccc(OC)cc3)c2N)cc1
EC50 [1]: > 53 µM (inactive) | IC50 [2]: > 47.1 µM (inactive)

COc1ccc(-c2oc3c4c(cc(OC)c3c(=O)c2CC=C(C)C)OC(C)(C)C=C4)c(OC)c1
EC50 [6]: 2.08 µM (active) | AC50 [3]: 6.2 µM (active) | EC50 [7]: > 60 µM (not active)

c1cc2cc(-c3c(-c4ccc5c(c4)OCO5)noc3-c3ccsc3)ccc2[nH]1
CC50 [4]: 44.8 µM (active) | AC50 [3]: 1.69 µM (active)

COC(=O)[C@@H]1[C@@H]2C[C@H]3c4[nH]c5cc(OC)ccc5c4CCN3C[C@@H]2C[C@H](OC(=O)c2cc(OC)c(OC)c(OC)c2)[C@H]1OC
AC50 (Cytochrome P450 1A2): 15.8 µM (inconclusive)

N#C/C(=C\c1ccc(OCC(N)=O)cc1)c1ccccc1
CC50 [4]: 36.8 µM (active)

COc1ccc(CN(C(=O)c2nsc(Cl)c2Cl)C(C(=O)NC2CCCC2)c2ccc(OC)cc2)cc1 (stereo not drawn)
EC50 [1]: > 53 µM (inactive)

CC1Cc2cc(S(=O)(=O)N3CCCCC3C)ccc2N1C(=O)C1CCC1 (stereo not drawn)
CC50 [4]: 20.8 µM (active)

CC#CC(=O)N1CCC(C(=O)Nc2ccc(Oc3ccccc3)nc2)CC1
EC50 (H4): 73 µM (active) | EC50 [8]: 25.4 µM (active)

CC(=O)Nc1ccc(-c2csc(NC(=O)CCCc3cccs3)n2)cc1
AC50 [3]: 7.57 µM (active)

COC(=O)c1cc(NC(=O)c2cc3ccccc3o2)cc(C(=O)OC)c1
IC50 (H9c2): > 79 µM (inactive)

COC(=O)C1=C(C)N(c2ccc(OC)cc2)C(C)=C(C(=O)OC)C1c1ccccc1
EC50 [1]: > 53 µM (inactive) | IC50 [2]: > 47.1 µM (inactive)

Oc1ccc(C[C@H]2CN=C(S)N2CCc2cc(C(F)(F)F)cc(C(F)(F)F)c2)cc1
CC50 [4]: 28.9 µM (active)

Cn1cccc1C(=O)N1CCC2(CCCN(c3ccccc3)C2)CC1
AC50 (Cytochrome P450 1A2): 10 µM (inconclusive)

Cc1cccc(-c2noc(C(C)NC(=O)c3ccco3)n2)c1 (stereo not drawn)
EC50 [1]: > 53 µM (inactive) | IC50 [2]: > 47.1 µM (inactive)

COc1ccc(C(=O)COC(=O)Cc2nnc(O)c3ccccc23)c(OC)c1
IC50 (H9c2): > 79 µM (inactive)

Cc1c(-c2cccc(Cl)c2)nc2ccccc2c1C(=O)OCC(=O)Nc1ccc2c(c1)OCO2
EC50 [6]: 2.22 µM (active) | CC50 [4]: 16.3 µM (active) | EC50 [7]: > 60 µM (not active)

CCCCNc1c(-c2ccc(OC)c(SC3CCCCC3)c2)nc2cc(C)ccn12
EC50 (Streptococcus): 10.1 µM (active) | EC50 (Streptokinase A): 9.9 µM (active) | EC50 [5]: 3.09 µM (active) | AC50 [3]: 4.36 µM (active)

Cc1ccc(-n2nnnc2C(=Cc2ccc(N(C)C)cc2)c2nnnn2-c2ccc(C)cc2)cc1
AC50 (Cytochrome P450 1A2): 12.6 µM (inconclusive) | AC50 (Cytochrome P450 2D6): 15.8 µM (inconclusive)

CC(C)(C)C1COc2ccccc2N1C(=O)c1ccccc1Cl (stereo not drawn)
EC50 [1]: 11.3 µM (active)

Nc1ncnc(Nc2cccc(Cl)c2Cl)n1
CC50 [4]: 26.1 µM (active)

CCCN1CCc2c(sc(NC(=O)c3ccc(S(=O)(=O)N(C)c4ccccc4)cc3)c2C(N)=O)C1
EC50 [1]: 4.43 µM (active)

COc1ccc(/C=C(\C#N)C(=O)c2c(C)[nH]c3ccccc23)cc1OC
IC50 (H9c2): > 79 µM (inactive)

CCOC(=O)c1c(-c2cccs2)csc1NC(=O)C(C)(C)C
CC50 [4]: 49.8 µM (active)

Oc1nc2cc(F)ccc2c2ccc(F)cc12
IC50 (H9c2): > 79 µM (inactive)

CCN(CC)C(=O)c1ccc(-c2nnc(Nc3ccc(O)cc3)c3ccccc23)cc1
IC50 (H9c2): 14.2 µM (active)

O=C(O)[C@@H]1CCCN1Cc1cc2ccccc2c2ccccc12
AC50 (Cytochrome P450 1A2): 6.31 µM (inconclusive)

CC(C)(C)OC(=O)NCCCCCNC(=O)c1[nH]cnc1C(=O)Nc1cc(Br)ccc1F
IC50 (H9c2): > 79 µM (inactive)

CC(=O)c1ccc(-c2cnc3c(NC=O)cc(-c4cccc(C(=O)N(C)C)c4)cn23)cc1
IC50 (H9c2): 11.2 µM (active)

C/C(=N\OCC(=O)Nc1ccc(F)c(F)c1F)c1cc2ccccc2o1
EC50 [1]: > 53 µM (inactive) | IC50 [2]: > 47.1 µM (inactive)

Cc1nn(-c2ccccc2)c(C)c1/C=N/NC(=O)c1cc(C(C)(C)C)[nH]n1
IC50 (H9c2): 12.2 µM (active)

O=C(N/N=C\c1ccccn1)C1COc2cc3ccccc3cc2O1 (stereo not drawn)
IC50 (H9c2): > 79 µM (inactive)

Cc1ccc(S(=O)(=O)N(C)C[C@H]2Oc3c(NC(=O)Nc4ccc(F)cc4)cccc3C(=O)N([C@@H](C)CO)C[C@H]2C)cc1
AC50 (Paired box protein Pax-8): 11.5 µM (active)

COc1ccccc1N(CC(=O)N/N=C/c1ccc(OCC(=O)NCc2ccco2)cc1)S(=O)(=O)c1ccc(C)cc1
CC50 [4]: 42.5 µM (active)

C/C(=N\NC(N)=O)c1ccccc1Cl
CC50 [4]: 19.4 µM (active)

N=C(N/N=C\c1ccc(Br)cc1)N/N=C\c1ccc(Br)cc1
EC50 (Streptococcus): 5.33 µM (active) | EC50 [5]: 2.39 µM (active) | AC50 [3]: 3.04 µM (active)

CN(C(=O)CCCOc1ccc2[nH]c(=O)ccc2c1)C1CCCCC1 [CILOSTAMIDE]
AC50 (Cytochrome P450 1A2): 31.6 µM (inconclusive) | AC50 (Cytochrome P450 2C19): inconclusive
